Data from patent US20060160864A1, “Acrylamide derivative, process for producing the same, and use” (priority 2003, published 2006).

Target: T1, human CCR5 (Homo sapiens, UniProt P51681)
T1 construct: expressed in transfected cells
Assay: Inhibition of [125I]-RANTES binding to CCR5/CHO cells (CCR5 antagonist activity)
Conditions: 40 min, test compound 1 μM, [125I]-RANTES 100 pM, CCR5/CHO strains, room temperature, read-out: Binding Inhibitory Ratio (%)
Description: Cloning of a CCR5 gene was conducted from human spleen cDNA by a PCR method. Using 0.5 ng of spleen cDNA (Toyobo Co., Ltd., QUICK-Clone cDNA) as a template, the PCR reaction was carried out in a DNA Thermal Cycler 480 (Perkin Elmer) using a TaKaRa EX Taq (Takara Shuzo Co., Ltd.) (reaction conditions: 30 cycles of treatments at 95° C. for 1 minute, at 60° C. for 1 minute, and at 75° C. for 5 minutes) by adding 25 pmol of primers, SEQ ID NO. 1 (sequence length: 34; sequence type: nucleic acid; number of chains: a single chain; topology: linear; sequence kind: other nucleic acid, synthetic DNA) described in Experimental Example (1) of WO 99/32100, and SEQ ID NO. 2 (sequence length: 34; sequence type: nucleic acid; number of chains: a single chain; topology: linear; sequence kind: other nucleic acid, synthetic DNA) described in Experimental Example (1) of WO 99/32100, respectively, which were prepared by referring to the base sequence of the CCR5 gene described by Samson et al. (Biochemistry 35 (11), 3362-3367 (1996)). The PCR products were subjected to agarose gel electrophoresis to collect DNA fragments of about 1.0 kb. Then, the CCR5 gene was cloned using an Original TA Cloning Kit (Funakoshi Co., Ltd.).
The plasmids obtained above were digested with restriction enzymes XbaI (Takara Shuzo Co., Ltd.) and BamHI (Takara Shuzo Co., Ltd.), and subjected to agarose gel electrophoresis to collect DNA fragments of about 1.0 kb. The DNA fragments and a plasmid pcDNA3.1 (Funakoshi Co., Ltd.) for expression in animal cells, which was previously digested with XbaI and BamHI, were mixed and ligated by DNA Ligation Kit Ver.2 (Takara Shuzo Co., Ltd.). Transformation of E. coli JM109 competent cells (Takara Shuzo Co., Ltd.) gave plasmid pCKR5.
CHO-K1 cells grown in a 750 ml tissue culture flask (Becton Dickinson) using Ham's F12 medium (Nihon Pharmaceutical Co., Ltd.) containing 10% fetal bovine serum (Lifetech Oriental) were collected from the flask by using 0.5 g/L trypsin-0.2 g/L EDTA (Lifetech Oriental). The cells were then washed with PBS (Lifetech Oriental), centrifuged (1000 rpm, 5 minutes), and suspended in PBS. Next, DNA was introduced into the cells using Gene Pulser (Bio-Rad Laboratories Inc.) under the following conditions. Namely, 8×10^6 cells and 10 μg of plasmid pCKR5 for expression of human CCR5 were added into a cuvette of a 0.4 cm-gap, and electroporation was carried out at an electric voltage of 0.25 kV and a capacitance of 960 μF. Subsequently, the cells were transferred into Ham's F12 medium containing 10% fetal bovine serum, and incubated for 24 hours. The cells were again collected, centrifuged, and then suspended in Ham's F12 medium containing 10% fetal bovine serum and Geneticin (Lifetech Oriental) at a concentration of 500 μg/ml. The suspension of cells was diluted to a concentration of 10^4 cells/ml, and inoculated on a 96-well plate (Becton Dickinson) to give Geneticin-resistant strains.
Subsequently, the Geneticin-resistant strains were cultured in the 96-well plate (Becton Dickinson), and then CCR5-expressing cells were selected from the resistant strains. Namely, an assay buffer (Ham's F12 medium containing 0.5% BSA, and 20 mM HEPES (Wako Pure Chemical Industries, Ltd., pH 7.2)) containing 200 pM [^125I]-RANTES (Amersham) as a ligand was added to each well and the binding reaction was carried out at room temperature for 40 minutes. Each well plate containing the cells was washed with ice-cooled PBS, and then to each well was added 1 M NaOH in an amount of 50 μl/well, which was stirred. The cells to which the ligand bound specifically, i.e., CCR5/CHO strains, were selected by measurement of radioactivity by γ-counter.
The CCR5/CHO strains were inoculated on a 96-well microplate at a concentration of 5×10^4 cells/well, respectively and were cultured for 24 hours. […]

T1 sequence (P51681 whole entry): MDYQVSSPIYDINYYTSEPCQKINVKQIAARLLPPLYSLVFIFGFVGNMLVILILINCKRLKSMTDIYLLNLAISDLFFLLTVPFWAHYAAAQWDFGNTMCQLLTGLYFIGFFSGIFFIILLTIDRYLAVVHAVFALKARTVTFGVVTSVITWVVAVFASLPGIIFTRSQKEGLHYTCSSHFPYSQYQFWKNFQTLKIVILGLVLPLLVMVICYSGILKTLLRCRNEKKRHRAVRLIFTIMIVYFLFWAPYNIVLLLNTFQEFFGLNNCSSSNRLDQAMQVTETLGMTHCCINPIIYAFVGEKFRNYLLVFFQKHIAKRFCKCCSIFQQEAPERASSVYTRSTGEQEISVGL

Row | SMILES | inhibition at 1 µM [%]
1 | CCCCOCCOc1ccc(-c2ccc(N3CCC(C(=O)O)C3)c(/C=C(\C)C(=O)Nc3ccc([S@@+]([O-])Cc4cncn4CCC)cc3)c2)cc1 (some centres unmarked) [Compound 41, (Ss)-(2E)-3-[4′-(2-butoxyethoxy)-4-(3-carboxypyrrolidin-1-yl)-1,1′-biphenyl-3-yl]-2-methyl-N-[4-[[(1-propyl-1H-imidazol-5-yl)methyl]sulfinyl]phenyl]acrylamide] | 100
2 | CCCCOCCOc1ccc(-c2ccc(N3CCC(COC(C)=O)C3)c(/C=C(\C)C(=O)Nc3ccc([S@@+]([O-])Cc4cncn4CCC)cc3)c2)cc1 (some centres unmarked) [Compound 38, (Ss)-(2E)-3-[4-[3-(acetoxymethyl)pyrrolidin-1-yl]-4′-(2-butoxyethoxy)-1,1′-biphenyl-3-yl]-2-methyl-N-[4-[[(1-propyl-1H-imidazol-5-yl)methyl]sulfinyl]phenyl]acrylamide] | 93
3 | CCCCOCCOc1ccc(-c2ccc(N3CCC(C(=O)OC)C3)c(/C=C(\C)C(=O)Nc3ccc([S@@+]([O-])Cc4cncn4CCC)cc3)c2)cc1 (single isomer, unassigned) [Compound 57, (Ss)-(2E)-3-[4′-(2-butoxyethoxy)-4-[3-(methoxycarbonyl)pyrrolidin-1-yl]-1,1′-biphenyl-3-yl]-2-methyl-N-[4-[[(1-propyl-1H-imidazol-5-yl)methyl]sulfinyl]phenyl]acrylamide] | 100
4 | CCCCOCCOc1ccc(-c2cnc(N3CCCC3)c(/C=C(\C)C(=O)Nc3ccc([S@@+]([O-])Cc4cncn4CCC)cc3)c2)cc1 [Compound 47, (S)-(2E)-3-[5-[4-(2-butoxyethoxy)phenyl]-2-pyrrolidin-1-ylpyridin-3-yl]-2-methyl-N-[4-[[(1-propyl-1H-imidazol-5-yl)methyl]sulfinyl]phenyl]acrylamide] | 96

Tested on: not given
Assay: not given
Conditions: not given

Row | SMILES | melting point [°C]
5 | CCCCOCCOc1ccc(-c2ccc(N3CCC(C(=O)N(C)C)C3)c(/C=C(\C)C(=O)Nc3ccc([S@@+]([O-])Cc4cncn4CCC)cc3)c2)cc1 (some centres unmarked) [Compound 45, (Ss)-(2E)-3-[4′-(2-butoxyethoxy)-4-[3-(dimethylaminocarbonyl)pyrrolidin-1-yl]-1,1′-biphenyl-3-yl]-2-methyl-N-[4-[[(1-propyl-1H-imidazol-5-yl)methyl]sulfinyl]phenyl]acrylamide] | 151 to 152
6 | CCCCOCCOc1ccc(-c2ccc(N3CCC(C(=O)NC)C3)c(/C=C(\C)C(=O)Nc3ccc([S@@+]([O-])Cc4cncn4CCC)cc3)c2)cc1 (some centres unmarked) [Compound 44, (Ss)-(2E)-3-[4′-(2-butoxyethoxy)-4-[3-(methylaminocarbonyl)pyrrolidin-1-yl]-1,1′-biphenyl-3-yl]-2-methyl-N-[4-[[(1-propyl-1H-imidazol-5-yl)methyl]sulfinyl]phenyl]acrylamide] | 127 to 128.5
7 | CCCCOCCOc1ccc(-c2ccc(N3CCC(C(=O)O)C3)c(/C=C(\C)C(=O)Nc3ccc([S@@+]([O-])Cc4cncn4CCC)cc3)c2)cc1 (some centres unmarked) [Compound 41, (Ss)-(2E)-3-[4′-(2-butoxyethoxy)-4-(3-carboxypyrrolidin-1-yl)-1,1′-biphenyl-3-yl]-2-methyl-N-[4-[[(1-propyl-1H-imidazol-5-yl)methyl]sulfinyl]phenyl]acrylamide] | 184 to 186
8 | CCCCOCCOc1ccc(-c2ccc(N3CCC4(C3)OCCO4)c(/C=C(\C)C(=O)Nc3ccc([S@@+]([O-])Cc4cncn4CCC)cc3)c2)cc1 [Compound 37, (S)-(2E)-3-[4′-(2-butoxyethoxy)-4-(1,4-dioxa-7-azaspiro[4.4]non-7-yl)-1,1′-biphenyl-3-yl]-2-methyl-N-[4-[[(1-propyl-1H-imidazol-5-yl)methyl]sulfinyl]phenyl]acrylamide] | 139.5 to 140.5
